In this assay the test system is Plasmodium falciparum. In words: Inhibition of Plasmodium falciparum W2.

Experimental findings from ChEMBL document CHEMBL3046787, “Molecular modeling studies of some substituted chalcone derivatives as cysteine protease inhibitors” (Med Chem Res, 2012) are described below.

For the molecule `COc1ccc(C(=O)/C=C/c2ccc(F)cc2F)c(OC)c1`, the IC50 (read-out: IC50) worked out at 11100 nM and the IC50 (read-out: pIC50 (converted)) was 11100 nM.

With `COc1ccc(C(=O)/C=C/c2ccc(Cl)cc2Cl)c(OC)c1`, the IC50 by setting is: (read-out: IC50) 3800 nM; (read-out: pIC50 (converted)) 3800 nM.

On to `COc1ccc(/C=C/C(=O)c2ccccn2)cc1`, for which the IC50 is 12000 nM (read-out: IC50) and 12000 nM (read-out: pIC50 (converted)).

In the case of `COc1ccc(/C=C/C(=O)c2ccc(F)cc2F)c(OC)c1`, the IC50 is 1900 nM (read-out: IC50) and 1900 nM (read-out: pIC50 (converted)).

`COc1ccc(/C=C/C(=O)c2ccc(Cl)cc2Cl)c(OC)c1`: the IC50 is 900 nM (read-out: IC50) and 899 nM (read-out: pIC50 (converted)).

Regarding `COc1ccc(OC)c(/C=C/C(=O)c2ccc3ccccc3c2)c1`, the IC50 (read-out: IC50) worked out at 5000 nM and the IC50 (read-out: pIC50 (converted)) is 5000 nM.

Consider `COc1cccc(OC)c1/C=C/C(=O)c1ccc2ccccc2c1`, for which the IC50 (read-out: IC50) worked out at 3300 nM and the IC50 (read-out: pIC50 (converted)) is 3300 nM.

Take `COc1cc(/C=C/C(=O)c2cccc3ccccc23)cc(OC)c1OC`: the IC50 is 4800 nM (read-out: IC50) and 4800 nM (read-out: pIC50 (converted)).

`COc1cc(/C=C/C(=O)c2ccc3ccccc3c2)cc(OC)c1OC`: the IC50 runs as follows: (read-out: IC50) 6000 nM; (read-out: pIC50 (converted)) 6000 nM.

With `COc1ccc(/C=C/C(=O)c2ccc3ccccc3c2)cc1OC`, the IC50 (read-out: IC50) is 7700 nM and the IC50 (read-out: pIC50 (converted)) is 7690 nM.

Take `COc1ccc(/C=C/C(=O)c2ccc(Cl)cc2Cl)c(OC)c1OC`: the IC50 (read-out: IC50) was 360 nM and the IC50 (read-out: pIC50 (converted)) was 360 nM.

For `COc1ccc(/C=C/C(=O)c2cc3ccccc3nc2Cl)cc1OC`, the IC50 by setting is: (read-out: IC50) 510 nM; (read-out: pIC50 (converted)) 511 nM.

With `O=C(/C=C/c1cccnc1)c1cc2ccccc2nc1Cl`, the IC50 is 710 nM (read-out: IC50) and 710 nM (read-out: pIC50 (converted)).

Regarding `COc1ccc(OC)c(/C=C/C(=O)c2ccc(Cl)cc2Cl)c1`, the IC50 runs as follows: (read-out: IC50) 750 nM; (read-out: pIC50 (converted)) 750 nM.

In the case of `COc1cccc(OC)c1/C=C/C(=O)c1ccc(Cl)cc1`, the IC50 was 770 nM (read-out: IC50) and 769 nM (read-out: pIC50 (converted)).

For `O=C(/C=C/c1ccc(Cl)c(Cl)c1)c1ccnc2ccccc12`, the IC50 reads like this: (read-out: IC50) 800 nM; (read-out: pIC50 (converted)) 800 nM.

With `COc1ccc(/C=C/C(=O)c2cc3ccccc3nc2Cl)c(OC)c1`, the IC50 by setting is: (read-out: IC50) 1000 nM; (read-out: pIC50 (converted)) 1000 nM.

As for `O=C(/C=C/c1ccc(F)cc1F)c1cc2ccccc2nc1Cl`, the IC50 is 1000 nM (read-out: IC50) and 1000 nM (read-out: pIC50 (converted)).

As to `COc1ccc(OC)c(/C=C/C(=O)c2cccc(Cl)c2Cl)c1`, the IC50 is 920 nM (read-out: IC50) and 920 nM (read-out: pIC50 (converted)).

As to `COc1ccc(/C=C/C(=O)c2cccc(Cl)c2Cl)cc1OC`, the IC50 runs as follows: (read-out: IC50) 1140 nM; (read-out: pIC50 (converted)) 1140 nM.

Consider `COc1ccc(/C=C/C(=O)c2cccc(Cl)c2Cl)c(OC)c1`, for which the IC50 is, setting by setting: (read-out: IC50) 1380 nM; (read-out: pIC50 (converted)) 1380 nM.

In the case of `COc1ccc(/C=C/C(=O)c2ccc(F)c(F)c2)c(OC)c1`, the IC50 runs as follows: (read-out: IC50) 2090 nM; (read-out: pIC50 (converted)) 2090 nM.

In the case of `COc1ccc(/C=C/C(=O)c2cccc3ccccc23)cc1OC`, the IC50 was 5000 nM (read-out: IC50) and 5000 nM (read-out: pIC50 (converted)).

As for `COc1cc(/C=C/C(=O)c2cccc3ccccc23)cc(OC)c1`, the IC50 reads like this: (read-out: IC50) 4300 nM; (read-out: pIC50 (converted)) 4300 nM.

Consider `COc1cc(/C=C/C(=O)c2ccc3ccccc3c2)cc(OC)c1`, for which the IC50 by setting is: (read-out: IC50) 9500 nM; (read-out: pIC50 (converted)) 9510 nM.

For `COc1ccc(/C=C/C(=O)c2cccc3ccccc23)c(OC)c1OC`, the IC50 (read-out: IC50) was 5800 nM and the IC50 (read-out: pIC50 (converted)) is 5790 nM.

`COc1ccc(/C=C/C(=O)c2cccnc2)cc1`: the IC50 was 10000 nM (read-out: IC50) and 10000 nM (read-out: pIC50 (converted)).

Consider `COc1ccc(/C=C/C(=O)c2ccncc2)cc1`, for which the IC50 (read-out: IC50) was 12000 nM and the IC50 (read-out: pIC50 (converted)) is 12000 nM.

On to `COc1ccc(/C=C/C(=O)c2ccccn2)c(OC)c1`, for which the IC50 was 1700 nM (read-out: IC50) and 1700 nM (read-out: pIC50 (converted)).

`COc1ccc(/C=C/C(=O)c2cccnc2)c(OC)c1`: the IC50 is 2700 nM (read-out: IC50) and 2700 nM (read-out: pIC50 (converted)).

Regarding `COc1ccc(OC)c(/C=C/C(=O)c2ccccn2)c1`, the IC50 is 1400 nM (read-out: IC50) and 1400 nM (read-out: pIC50 (converted)).

With `COc1ccc(/C=C/C(=O)c2ccccn2)c(OC)c1OC`, the IC50 (read-out: IC50) turned out to be 2300 nM and the IC50 (read-out: pIC50 (converted)) is 2300 nM.

Take `COc1ccc(/C=C/C(=O)c2cccnc2)c(OC)c1OC`: the IC50 was 3900 nM (read-out: IC50) and 3900 nM (read-out: pIC50 (converted)).

For the molecule `COc1ccc(/C=C/C(=O)c2ccncc2)c(OC)c1OC`, the IC50 was 3200 nM (read-out: IC50) and 3200 nM (read-out: pIC50 (converted)).

Regarding `O=C(/C=C/c1cc(Cl)ccc1Cl)c1ccnc2ccccc12`, the IC50 is 230 nM (read-out: IC50) and 230 nM (read-out: pIC50 (converted)).

On to `COc1ccc(/C=C/C(=O)c2cccc3ccccc23)cc1`, for which the IC50 is 10000 nM (read-out: IC50) and 10000 nM (read-out: pIC50 (converted)).

As for `COc1ccc(/C=C/C(=O)c2cccc3ccccc23)c(OC)c1`, the IC50 runs as follows: (read-out: IC50) 4600 nM; (read-out: pIC50 (converted)) 4600 nM.

For the molecule `COc1ccc(OC)c(/C=C/C(=O)c2cccc3ccccc23)c1`, the IC50 (read-out: IC50) stood at 2800 nM and the IC50 (read-out: pIC50 (converted)) was 2800 nM.

As to `COc1cccc(OC)c1/C=C/C(=O)c1cccc2ccccc12`, the IC50 was 3100 nM (read-out: IC50) and 3100 nM (read-out: pIC50 (converted)).

On to `O=C(/C=C/c1ccc(-n2ccnc2)cc1)c1ccc(Cl)cc1Cl`, for which the IC50 (read-out: IC50) is 1180 nM and the IC50 (read-out: pIC50 (converted)) is 1180 nM.

As to `COc1ccc(/C=C/C(=O)c2ccc(C(F)(F)F)cc2)c(OC)c1`, the IC50 reads like this: (read-out: IC50) 750 nM; (read-out: pIC50 (converted)) 750 nM.
